Source: the NIST ThermoML archive (doi:10.1021/je7000232)
± gives the expanded uncertainty stated by the source.

Assays:
[1] = xn = mol fraction of the nth substance listed; details: 293.15 K, 101 kPa, Liquid, Capillary tube (Ostwald / Ubbelohde) method
[2] = excess molar enthalpy (molar enthalpy of mixing); xn = mol fraction of the nth substance listed; details: 101 kPa, Liquid
[3] = Liquid, Closed cell (Static) method

What does the source list for `CC(O)C(=O)[O-].C[N+](C)(C)CCO` [choline lactate] + O?
viscosity ([1]; x2 = 0.0272): 5850 mPa·s; viscosity ([1]; x2 = 0.382): 940 ± 440 mPa·s; viscosity ([1]; x2 = 0.546): 336 ± 94 mPa·s; viscosity ([1]; x2 = 0.731): 75 ± 10 mPa·s; viscosity ([1]; x2 = 0.878): 12.5 ± 1.1 mPa·s; viscosity ([1]; x2 = 0.915): 6.5 ± 0.4 mPa·s; viscosity ([1]; x2 = 0.941): 3.9 ± 0.3 mPa·s; excess molar enthalpy ([2]; 303.15 K, x2 = 0.1585): -0.938 ± 0.0765 kcal/mol; excess molar enthalpy ([2]; 303.15 K, x2 = 0.2269): -1.51 ± 0.122 kcal/mol; excess molar enthalpy ([2]; 303.15 K, x2 = 0.3051): -2.04 ± 0.165 kcal/mol; excess molar enthalpy ([2]; 303.15 K, x2 = 0.3528): -2.4 ± 0.194 kcal/mol; excess molar enthalpy ([2]; 303.15 K, x2 = 0.4853): -3.35 ± 0.263 kcal/mol; excess molar enthalpy ([2]; 303.15 K, x2 = 0.671): -4.12 ± 0.335 kcal/mol; excess molar enthalpy ([2]; 303.15 K, x2 = 0.8719): -4.37 ± 0.359 kcal/mol; excess molar enthalpy ([2]; 303.15 K, x2 = 0.9078): -3.55 ± 0.287 kcal/mol; excess molar enthalpy ([2]; 303.15 K, x2 = 0.9751): -1.87 ± 0.153 kcal/mol; excess molar enthalpy ([2]; 303.15 K, x2 = 0.9878): -0.604 ± 0.0502 kcal/mol; excess molar enthalpy ([2]; 313.15 K, x2 = 0.1687): -0.723 ± 0.0598 kcal/mol; excess molar enthalpy ([2]; 313.15 K, x2 = 0.2123): -1.1 ± 0.0908 kcal/mol; excess molar enthalpy ([2]; 313.15 K, x2 = 0.3065): -1.57 ± 0.127 kcal/mol; excess molar enthalpy ([2]; 313.15 K, x2 = 0.3943): -2.11 ± 0.17 kcal/mol; excess molar enthalpy ([2]; 313.15 K, x2 = 0.5019): -2.6 ± 0.21 kcal/mol; excess molar enthalpy ([2]; 313.15 K, x2 = 0.603): -2.9 ± 0.234 kcal/mol; excess molar enthalpy ([2]; 313.15 K, x2 = 0.738): -3.3 ± 0.263 kcal/mol; excess molar enthalpy ([2]; 313.15 K, x2 = 0.8794): -3.48 ± 0.287 kcal/mol; excess molar enthalpy ([2]; 313.15 K, x2 = 0.9535): -2.47 ± 0.198 kcal/mol; excess molar enthalpy ([2]; 313.15 K, x2 = 0.9769): -1.55 ± 0.127 kcal/mol; excess molar enthalpy ([2]; 323.15 K, x2 = 0.16): -0.368 ± 0.0311 kcal/mol; excess molar enthalpy ([2]; 323.15 K, x2 = 0.2662): -0.649 ± 0.055 kcal/mol; excess molar enthalpy ([2]; 323.15 K, x2 = 0.331): -0.856 ± 0.0693 kcal/mol; excess molar enthalpy ([2]; 323.15 K, x2 = 0.5059): -1.55 ± 0.127 kcal/mol; excess molar enthalpy ([2]; 323.15 K, x2 = 0.6257): -2.15 ± 0.174 kcal/mol; excess molar enthalpy ([2]; 323.15 K, x2 = 0.7785): -2.6 ± 0.21 kcal/mol; excess molar enthalpy ([2]; 323.15 K, x2 = 0.8805): -2.09 ± 0.17 kcal/mol; excess molar enthalpy ([2]; 323.15 K, x2 = 0.9555): -1.1 ± 0.0908 kcal/mol; excess molar enthalpy ([2]; 323.15 K, x2 = 0.9884): -0.239 ± 0.021 kcal/mol

Which results are given for `O` [water]?
vapor or sublimation pressure ([3]; 303.15 K): 4.24 ± 0.33 kPa; vapor or sublimation pressure ([3]; 313.15 K): 7.38 ± 0.33 kPa; vapor or sublimation pressure ([3]; 323.15 K): 12.34 ± 0.35 kPa
